How the values were obtained:
Experiment in all cases: KinomeScan kinase panel, single concentration 10 µM
Assay type in all cases: binding
[1] = target: T1, KinomeScan kinase panel (Homo sapiens, UniProt P17948); details: FLT1, 10 µM; read-out: score (%)
T1 construct: purchased DiscoveRx (KinomeScan)

[2] = target: T2, KinomeScan kinase panel (Homo sapiens, UniProt P19784); details: CSNK2A2, 10 µM; read-out: score (%)
T2 construct: purchased DiscoveRx (KinomeScan)

[3] = target: T3, KinomeScan kinase panel (Homo sapiens, UniProt P22455); details: FGFR4, 10 µM; read-out: score (%)
T3 construct: purchased DiscoveRx (KinomeScan)
T3 sequence (P22455 22-802): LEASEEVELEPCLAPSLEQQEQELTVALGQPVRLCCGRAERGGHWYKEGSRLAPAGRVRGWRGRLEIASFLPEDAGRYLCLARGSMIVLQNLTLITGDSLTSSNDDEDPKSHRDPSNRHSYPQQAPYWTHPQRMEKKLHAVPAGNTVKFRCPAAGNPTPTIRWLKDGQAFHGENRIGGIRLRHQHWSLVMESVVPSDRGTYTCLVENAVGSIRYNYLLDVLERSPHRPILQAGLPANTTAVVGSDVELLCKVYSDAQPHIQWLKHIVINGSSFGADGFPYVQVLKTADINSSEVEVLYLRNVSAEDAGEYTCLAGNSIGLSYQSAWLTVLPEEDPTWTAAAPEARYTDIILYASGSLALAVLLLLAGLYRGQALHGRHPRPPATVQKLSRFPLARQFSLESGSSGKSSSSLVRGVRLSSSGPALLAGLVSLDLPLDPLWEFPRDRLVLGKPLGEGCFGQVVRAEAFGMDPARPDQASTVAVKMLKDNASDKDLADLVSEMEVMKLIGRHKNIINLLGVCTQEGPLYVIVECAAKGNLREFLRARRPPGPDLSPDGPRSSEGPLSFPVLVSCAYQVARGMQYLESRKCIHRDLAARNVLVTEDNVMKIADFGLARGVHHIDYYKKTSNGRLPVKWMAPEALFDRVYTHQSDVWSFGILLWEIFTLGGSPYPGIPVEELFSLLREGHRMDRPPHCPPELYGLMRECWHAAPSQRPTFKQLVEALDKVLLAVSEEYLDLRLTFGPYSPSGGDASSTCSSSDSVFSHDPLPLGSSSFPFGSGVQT

[4] = target: T4, KinomeScan kinase panel (Homo sapiens, UniProt P30530); details: AXL, 10 µM; read-out: score (%)
T4 construct: purchased DiscoveRx (KinomeScan)
T4 sequence (P30530 26-894): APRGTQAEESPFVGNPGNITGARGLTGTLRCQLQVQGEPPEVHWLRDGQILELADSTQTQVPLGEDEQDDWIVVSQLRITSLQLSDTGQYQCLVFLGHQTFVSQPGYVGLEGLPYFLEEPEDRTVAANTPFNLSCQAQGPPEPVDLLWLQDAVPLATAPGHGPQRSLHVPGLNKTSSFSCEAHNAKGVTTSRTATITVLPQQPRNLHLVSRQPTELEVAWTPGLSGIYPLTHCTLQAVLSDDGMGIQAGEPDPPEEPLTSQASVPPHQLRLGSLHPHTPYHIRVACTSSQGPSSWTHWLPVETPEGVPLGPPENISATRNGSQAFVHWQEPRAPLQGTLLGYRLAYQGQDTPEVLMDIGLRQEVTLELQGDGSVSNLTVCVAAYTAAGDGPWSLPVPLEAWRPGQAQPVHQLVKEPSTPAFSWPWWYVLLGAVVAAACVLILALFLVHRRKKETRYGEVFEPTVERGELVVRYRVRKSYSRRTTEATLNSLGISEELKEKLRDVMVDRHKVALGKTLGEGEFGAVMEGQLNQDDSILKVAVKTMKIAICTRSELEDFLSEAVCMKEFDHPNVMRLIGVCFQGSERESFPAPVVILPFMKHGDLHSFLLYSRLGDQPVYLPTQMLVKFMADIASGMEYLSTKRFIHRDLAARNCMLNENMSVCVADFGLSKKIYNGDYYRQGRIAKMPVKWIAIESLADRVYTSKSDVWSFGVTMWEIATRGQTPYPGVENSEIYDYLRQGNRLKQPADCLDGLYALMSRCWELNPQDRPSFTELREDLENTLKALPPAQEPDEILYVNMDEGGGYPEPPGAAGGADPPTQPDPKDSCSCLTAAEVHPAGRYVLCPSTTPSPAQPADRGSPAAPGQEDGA

[5] = target: T5, KinomeScan kinase panel (Homo sapiens, UniProt P36888, D835H); details: FLT3(D835H), 10 µM; read-out: score (%)
T5 construct: purchased DiscoveRx (KinomeScan)
T5 sequence (P36888 27-993 D835H): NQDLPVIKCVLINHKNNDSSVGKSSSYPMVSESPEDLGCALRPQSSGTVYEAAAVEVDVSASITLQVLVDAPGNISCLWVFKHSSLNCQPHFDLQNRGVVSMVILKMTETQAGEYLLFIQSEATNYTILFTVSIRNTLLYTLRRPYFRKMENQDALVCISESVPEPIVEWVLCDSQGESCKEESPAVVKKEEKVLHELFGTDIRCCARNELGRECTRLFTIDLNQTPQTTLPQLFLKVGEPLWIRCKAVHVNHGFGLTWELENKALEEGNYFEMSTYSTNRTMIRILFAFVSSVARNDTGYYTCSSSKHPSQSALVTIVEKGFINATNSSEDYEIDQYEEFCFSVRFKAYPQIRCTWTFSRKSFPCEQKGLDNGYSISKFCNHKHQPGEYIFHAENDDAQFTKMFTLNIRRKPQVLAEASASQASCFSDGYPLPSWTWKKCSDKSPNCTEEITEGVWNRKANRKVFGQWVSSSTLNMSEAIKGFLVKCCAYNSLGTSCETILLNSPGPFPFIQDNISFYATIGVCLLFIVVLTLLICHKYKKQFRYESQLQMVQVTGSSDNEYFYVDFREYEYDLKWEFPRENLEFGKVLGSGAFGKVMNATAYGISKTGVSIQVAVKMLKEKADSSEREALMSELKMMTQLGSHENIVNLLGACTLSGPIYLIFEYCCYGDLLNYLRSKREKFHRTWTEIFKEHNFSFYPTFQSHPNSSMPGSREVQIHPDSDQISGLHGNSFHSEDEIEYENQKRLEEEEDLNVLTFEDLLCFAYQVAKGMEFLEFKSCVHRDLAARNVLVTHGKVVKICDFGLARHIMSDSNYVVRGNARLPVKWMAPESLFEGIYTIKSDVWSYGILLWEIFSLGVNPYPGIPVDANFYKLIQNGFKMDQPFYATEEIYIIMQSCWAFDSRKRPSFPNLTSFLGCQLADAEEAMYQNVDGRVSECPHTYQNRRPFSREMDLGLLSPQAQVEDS

[6] = target: T6, KinomeScan kinase panel (Homo sapiens, UniProt P41240); details: CSK, 10 µM
T6 construct: purchased DiscoveRx (KinomeScan)
T6 sequence (P41240 whole entry): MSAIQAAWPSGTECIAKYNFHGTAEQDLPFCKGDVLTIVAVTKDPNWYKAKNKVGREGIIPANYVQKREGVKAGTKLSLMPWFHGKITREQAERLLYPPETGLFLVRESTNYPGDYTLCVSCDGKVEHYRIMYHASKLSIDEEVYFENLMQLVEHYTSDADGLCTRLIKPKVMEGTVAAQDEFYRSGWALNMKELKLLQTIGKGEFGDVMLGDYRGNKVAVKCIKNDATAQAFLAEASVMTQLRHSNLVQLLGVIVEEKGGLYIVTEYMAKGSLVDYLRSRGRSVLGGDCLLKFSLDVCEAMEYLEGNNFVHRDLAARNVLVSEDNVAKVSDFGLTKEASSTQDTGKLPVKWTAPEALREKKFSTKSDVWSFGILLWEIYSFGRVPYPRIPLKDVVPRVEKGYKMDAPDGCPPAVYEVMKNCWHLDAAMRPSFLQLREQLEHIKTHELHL

[7] = target: T7, KinomeScan kinase panel (Homo sapiens, UniProt Q07002); details: PCTK3, 10 µM; read-out: score (%)
T7 construct: purchased DiscoveRx (KinomeScan)
T7 sequence (Q07002 whole entry): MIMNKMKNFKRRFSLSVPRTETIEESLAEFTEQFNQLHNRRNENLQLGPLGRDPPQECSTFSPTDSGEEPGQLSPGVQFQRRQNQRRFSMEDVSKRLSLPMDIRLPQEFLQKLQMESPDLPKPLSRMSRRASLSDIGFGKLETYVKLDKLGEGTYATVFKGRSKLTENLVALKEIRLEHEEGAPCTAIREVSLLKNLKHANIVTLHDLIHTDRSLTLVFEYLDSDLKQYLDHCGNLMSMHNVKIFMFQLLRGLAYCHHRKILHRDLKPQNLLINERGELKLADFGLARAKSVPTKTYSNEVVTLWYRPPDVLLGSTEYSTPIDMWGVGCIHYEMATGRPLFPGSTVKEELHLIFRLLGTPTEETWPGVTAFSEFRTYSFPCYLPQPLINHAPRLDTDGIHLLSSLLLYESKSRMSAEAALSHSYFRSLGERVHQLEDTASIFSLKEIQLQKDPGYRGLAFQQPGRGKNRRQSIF

[8] = target: T8, KinomeScan kinase panel (Homo sapiens, UniProt Q14680); details: MELK, 10 µM; read-out: score (%)
T8 construct: purchased DiscoveRx (KinomeScan)
T8 sequence (Q14680 whole entry): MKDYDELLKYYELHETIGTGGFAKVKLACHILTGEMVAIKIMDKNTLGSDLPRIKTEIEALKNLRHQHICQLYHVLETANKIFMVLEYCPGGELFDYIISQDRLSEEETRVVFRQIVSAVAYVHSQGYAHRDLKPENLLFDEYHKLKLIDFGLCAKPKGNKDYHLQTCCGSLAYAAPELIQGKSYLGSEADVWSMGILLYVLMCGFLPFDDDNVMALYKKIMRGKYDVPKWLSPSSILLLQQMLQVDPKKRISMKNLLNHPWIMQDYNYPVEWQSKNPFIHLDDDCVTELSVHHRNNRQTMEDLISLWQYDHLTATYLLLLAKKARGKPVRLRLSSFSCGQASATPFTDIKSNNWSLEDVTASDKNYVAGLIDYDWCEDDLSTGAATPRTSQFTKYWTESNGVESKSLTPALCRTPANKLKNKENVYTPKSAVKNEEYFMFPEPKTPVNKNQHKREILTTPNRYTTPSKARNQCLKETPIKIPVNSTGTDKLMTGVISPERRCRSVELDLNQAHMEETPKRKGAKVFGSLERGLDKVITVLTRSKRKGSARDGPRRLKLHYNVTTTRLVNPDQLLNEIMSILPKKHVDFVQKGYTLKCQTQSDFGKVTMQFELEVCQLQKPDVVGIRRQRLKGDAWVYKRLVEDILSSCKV

[9] = target: T9, KinomeScan kinase panel (Homo sapiens, UniProt Q8IW41); details: MAPKAPK5, 10 µM; read-out: score (%)
T9 construct: purchased DiscoveRx (KinomeScan)
T9 sequence (Q8IW41 1-473): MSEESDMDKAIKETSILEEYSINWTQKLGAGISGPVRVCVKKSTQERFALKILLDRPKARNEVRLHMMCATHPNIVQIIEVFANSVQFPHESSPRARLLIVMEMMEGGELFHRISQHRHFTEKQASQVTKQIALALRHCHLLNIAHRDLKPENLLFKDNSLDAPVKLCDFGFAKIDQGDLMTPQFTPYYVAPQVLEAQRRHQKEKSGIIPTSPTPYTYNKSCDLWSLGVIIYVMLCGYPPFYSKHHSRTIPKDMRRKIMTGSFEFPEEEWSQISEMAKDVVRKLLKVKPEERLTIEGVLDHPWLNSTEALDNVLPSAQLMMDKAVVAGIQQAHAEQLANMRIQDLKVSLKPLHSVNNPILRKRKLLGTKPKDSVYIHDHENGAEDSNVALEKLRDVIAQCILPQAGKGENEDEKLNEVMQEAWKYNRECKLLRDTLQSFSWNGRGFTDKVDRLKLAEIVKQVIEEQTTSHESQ

[10] = target: T10, KinomeScan kinase panel (Homo sapiens, UniProt Q9HBH9); details: MKNK2, 10 µM; read-out: score (%)
T10 construct: purchased DiscoveRx (KinomeScan)
T10 sequence (Q9HBH9 whole entry): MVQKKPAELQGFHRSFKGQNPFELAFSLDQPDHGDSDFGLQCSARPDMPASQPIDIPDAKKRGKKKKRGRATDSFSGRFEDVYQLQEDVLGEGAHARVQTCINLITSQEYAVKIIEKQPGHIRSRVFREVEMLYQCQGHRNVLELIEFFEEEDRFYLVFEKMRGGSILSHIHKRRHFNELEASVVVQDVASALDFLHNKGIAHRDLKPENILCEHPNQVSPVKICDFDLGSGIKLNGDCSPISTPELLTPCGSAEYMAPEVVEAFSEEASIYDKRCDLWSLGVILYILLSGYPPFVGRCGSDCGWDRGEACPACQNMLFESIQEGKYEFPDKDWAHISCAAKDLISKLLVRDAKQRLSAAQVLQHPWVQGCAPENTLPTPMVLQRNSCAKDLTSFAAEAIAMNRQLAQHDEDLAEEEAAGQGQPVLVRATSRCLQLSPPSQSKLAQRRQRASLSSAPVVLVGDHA

T1 sequence (P17948 27-1338): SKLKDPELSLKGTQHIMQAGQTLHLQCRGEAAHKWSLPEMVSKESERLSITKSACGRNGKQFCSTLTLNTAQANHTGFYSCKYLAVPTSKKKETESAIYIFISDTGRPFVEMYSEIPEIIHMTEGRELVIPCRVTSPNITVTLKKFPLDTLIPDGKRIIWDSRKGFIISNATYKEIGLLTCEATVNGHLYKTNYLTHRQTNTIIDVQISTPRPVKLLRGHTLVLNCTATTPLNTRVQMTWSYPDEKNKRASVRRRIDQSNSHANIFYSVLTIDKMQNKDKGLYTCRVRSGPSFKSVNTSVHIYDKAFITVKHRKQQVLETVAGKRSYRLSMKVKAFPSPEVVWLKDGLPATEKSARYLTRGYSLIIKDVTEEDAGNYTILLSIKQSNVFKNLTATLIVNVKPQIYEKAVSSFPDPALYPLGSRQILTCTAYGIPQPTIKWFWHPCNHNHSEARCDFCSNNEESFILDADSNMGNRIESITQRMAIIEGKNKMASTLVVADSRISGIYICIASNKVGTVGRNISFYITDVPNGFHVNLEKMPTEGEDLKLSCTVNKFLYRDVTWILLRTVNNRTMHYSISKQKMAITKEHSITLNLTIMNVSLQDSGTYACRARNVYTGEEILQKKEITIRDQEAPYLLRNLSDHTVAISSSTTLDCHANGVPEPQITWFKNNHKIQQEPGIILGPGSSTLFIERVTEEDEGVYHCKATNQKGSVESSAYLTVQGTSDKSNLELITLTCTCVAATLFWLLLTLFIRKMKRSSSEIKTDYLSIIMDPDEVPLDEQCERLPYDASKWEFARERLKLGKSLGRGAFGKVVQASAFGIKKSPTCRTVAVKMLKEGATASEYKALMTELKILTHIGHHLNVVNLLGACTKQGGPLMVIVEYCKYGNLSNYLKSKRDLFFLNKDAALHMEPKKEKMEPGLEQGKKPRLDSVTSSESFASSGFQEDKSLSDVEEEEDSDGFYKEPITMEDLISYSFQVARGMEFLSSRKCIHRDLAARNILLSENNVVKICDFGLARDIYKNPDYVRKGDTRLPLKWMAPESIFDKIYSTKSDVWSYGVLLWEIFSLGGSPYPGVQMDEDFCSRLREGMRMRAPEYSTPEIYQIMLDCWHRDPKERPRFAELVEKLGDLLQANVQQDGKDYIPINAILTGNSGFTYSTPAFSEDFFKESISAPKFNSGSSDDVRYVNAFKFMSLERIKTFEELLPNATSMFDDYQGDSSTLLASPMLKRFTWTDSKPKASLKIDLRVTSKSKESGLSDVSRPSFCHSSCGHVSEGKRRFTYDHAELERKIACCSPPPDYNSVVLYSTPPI
T2 sequence (P19784 whole entry): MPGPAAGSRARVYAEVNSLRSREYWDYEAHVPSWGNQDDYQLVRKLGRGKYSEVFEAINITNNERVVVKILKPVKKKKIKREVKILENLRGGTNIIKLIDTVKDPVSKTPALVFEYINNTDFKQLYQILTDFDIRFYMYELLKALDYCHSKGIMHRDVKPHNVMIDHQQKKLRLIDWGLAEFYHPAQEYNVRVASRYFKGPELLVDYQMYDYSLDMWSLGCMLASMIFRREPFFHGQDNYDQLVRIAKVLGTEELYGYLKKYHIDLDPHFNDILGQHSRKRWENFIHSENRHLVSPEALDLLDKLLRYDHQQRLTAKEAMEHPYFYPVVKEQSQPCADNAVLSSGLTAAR

Row | SMILES | remaining binding at 10 µM [1] [%] | remaining binding at 10 µM [2] [%] | remaining binding at 10 µM [3] [%] | remaining binding at 10 µM [4] [%] | remaining binding at 10 µM [5] [%] | score (%) [6] [%] | remaining binding at 10 µM [7] [%] | remaining binding at 10 µM [8] [%] | remaining binding at 10 µM [9] [%] | remaining binding at 10 µM [10] [%]
1 | CCN1CCN(Cc2ccc(NC(=O)c3ccc(C)c(NC(=O)c4cncc(-c5cccs5)c4)c3)cc2C(F)(F)F)CC1 [ALW-II-41-27] | 1 | > 30 | 8.7 | > 30 | 1.4 | 0.65 | > 30 | > 30 | > 30 | > 30
2 | CCN1CCN(Cc2ccc(NC(=O)c3ccc(C)c(/C=C/c4cnc5[nH]ccc5c4Cl)c3)cc2C(F)(F)F)CC1 [HG-6-63-01, (E)-3-(2-(4-chloro-1H-pyrrolo[2,3-b]pyridin-5-yl)vinyl)-N-(4-((4-ethylpiperazin-1-yl)methyl)-3-(trifluoromethyl)phenyl)-4-methylbenzamide] | 0.2 | > 30 | 0.2 | 17 | 0.1 | 2.1 | > 30 | 22 | > 30 | 0.75
3 | CCN1CCN(Cc2ccc(NC(=O)c3ccc(C)c(C#Cc4cccnc4)c3)cc2C(F)(F)F)CC1 [XMD15-44] | 0.5 | > 30 | 0 | 2.9 | 0.15 | 0.15 | 6.2 | 8.1 | > 30 | 0
